Measured values from the NIST ThermoML archive (doi:10.1021/je060339m).

Details: Liquid

CCCCCOC(C)=O [pentyl ethanoate]
Details	mass density [kg/m3]
298.15 K, 100 kPa	871.4
298.15 K, 1000 kPa	871.9
298.15 K, 2000 kPa	872.7
298.15 K, 2700 kPa	873.3
298.15 K, 3000 kPa	873.5
298.15 K, 5000 kPa	875.3
298.15 K, 10000 kPa	879.1
298.15 K, 15000 kPa	882.7
298.15 K, 20000 kPa	886.2
298.15 K, 25000 kPa	889.6
298.15 K, 30000 kPa	893.6
298.15 K, 35000 kPa	897.9
303.15 K, 100 kPa	866.5
303.15 K, 1000 kPa	867.1
303.15 K, 2000 kPa	867.9
303.15 K, 2700 kPa	868.5
303.15 K, 3000 kPa	868.7
303.15 K, 5000 kPa	870.5
303.15 K, 10000 kPa	874.4
303.15 K, 15000 kPa	878.1
303.15 K, 20000 kPa	881.6
303.15 K, 25000 kPa	885.1
303.15 K, 30000 kPa	889.4
303.15 K, 35000 kPa	893.8
308.15 K, 100 kPa	861.6
308.15 K, 1000 kPa	862.2
308.15 K, 2000 kPa	863.1
308.15 K, 2700 kPa	863.7
308.15 K, 3000 kPa	863.9
308.15 K, 5000 kPa	865.8
308.15 K, 10000 kPa	869.8
308.15 K, 15000 kPa	873.6
308.15 K, 20000 kPa	877.3
308.15 K, 25000 kPa	880.8
308.15 K, 30000 kPa	885.2
308.15 K, 35000 kPa	889.7
313.15 K, 100 kPa	856.7
313.15 K, 1000 kPa	857.4
313.15 K, 2000 kPa	858.3
313.15 K, 2700 kPa	858.9
313.15 K, 3000 kPa	859.2
313.15 K, 5000 kPa	861
313.15 K, 10000 kPa	865.2
313.15 K, 15000 kPa	869
313.15 K, 20000 kPa	872.8
313.15 K, 25000 kPa	876.4
313.15 K, 30000 kPa	880.9
313.15 K, 35000 kPa	885.5
318.15 K, 100 kPa	851.9
318.15 K, 1000 kPa	852.6
318.15 K, 2000 kPa	853.5
318.15 K, 2700 kPa	854.2
318.15 K, 3000 kPa	854.4
318.15 K, 5000 kPa	856.4
318.15 K, 10000 kPa	860.7
318.15 K, 15000 kPa	864.7
318.15 K, 20000 kPa	868.5
318.15 K, 25000 kPa	872.3
318.15 K, 30000 kPa	876.9
318.15 K, 35000 kPa	881.7
323.15 K, 100 kPa	847.1
323.15 K, 1000 kPa	847.7
323.15 K, 2000 kPa	848.7
323.15 K, 2700 kPa	849.3
323.15 K, 3000 kPa	849.6
323.15 K, 5000 kPa	851.7
323.15 K, 10000 kPa	856.1
323.15 K, 15000 kPa	860.2
323.15 K, 20000 kPa	864.2
323.15 K, 25000 kPa	868.1
323.15 K, 30000 kPa	872.8
323.15 K, 35000 kPa	877.6
328.15 K, 100 kPa	842.3
328.15 K, 1000 kPa	843.2
328.15 K, 2000 kPa	844.4
328.15 K, 2700 kPa	845.2
328.15 K, 3000 kPa	845.5
328.15 K, 5000 kPa	847.1
328.15 K, 10000 kPa	851.6
328.15 K, 15000 kPa	855.9
328.15 K, 20000 kPa	860
328.15 K, 25000 kPa	864.1
328.15 K, 30000 kPa	869
328.15 K, 35000 kPa	874
333.15 K, 100 kPa	837.8
333.15 K, 1000 kPa	838.7
333.15 K, 2000 kPa	839.8
333.15 K, 2700 kPa	840.5
333.15 K, 3000 kPa	840.8
333.15 K, 5000 kPa	842.7
333.15 K, 10000 kPa	847.4
333.15 K, 15000 kPa	851.8
333.15 K, 20000 kPa	856
333.15 K, 25000 kPa	860.1
333.15 K, 30000 kPa	865.1
333.15 K, 35000 kPa	870.2
338.15 K, 100 kPa	832.9
338.15 K, 1000 kPa	834
338.15 K, 2000 kPa	835.1
338.15 K, 2700 kPa	835.8
338.15 K, 3000 kPa	836.1
338.15 K, 5000 kPa	838.1
338.15 K, 10000 kPa	842.9
338.15 K, 15000 kPa	847.5
338.15 K, 20000 kPa	851.9
338.15 K, 25000 kPa	856.2
338.15 K, 30000 kPa	861.3
338.15 K, 35000 kPa	866.5
343.15 K, 100 kPa	828.3
343.15 K, 1000 kPa	829.3
343.15 K, 2000 kPa	830.4
343.15 K, 2700 kPa	831.2
343.15 K, 3000 kPa	831.5
343.15 K, 5000 kPa	833.5
343.15 K, 10000 kPa	838.5
343.15 K, 15000 kPa	843.2
343.15 K, 20000 kPa	847.7
343.15 K, 25000 kPa	852.1
343.15 K, 30000 kPa	857.3
343.15 K, 35000 kPa	862.7
348.15 K, 100 kPa	823.2
348.15 K, 1000 kPa	824.6
348.15 K, 2000 kPa	825.7
348.15 K, 2700 kPa	826.5
348.15 K, 3000 kPa	826.9
348.15 K, 5000 kPa	828.8
348.15 K, 10000 kPa	834
348.15 K, 15000 kPa	838.9
348.15 K, 20000 kPa	843.5
348.15 K, 25000 kPa	847.9
348.15 K, 30000 kPa	853.3
348.15 K, 35000 kPa	858.8
353.15 K, 100 kPa	818.7
353.15 K, 1000 kPa	819.9
353.15 K, 2000 kPa	821.1
353.15 K, 2700 kPa	821.9
353.15 K, 3000 kPa	822.3
353.15 K, 5000 kPa	824.4
353.15 K, 10000 kPa	829.8
353.15 K, 15000 kPa	835
353.15 K, 20000 kPa	839.7
353.15 K, 25000 kPa	844.3
353.15 K, 30000 kPa	849.8
353.15 K, 35000 kPa	855.4
358.15 K, 100 kPa	811.3
358.15 K, 1000 kPa	812.2
358.15 K, 2000 kPa	813.4
358.15 K, 2700 kPa	814.1
358.15 K, 3000 kPa	814.5
358.15 K, 5000 kPa	816.9
358.15 K, 10000 kPa	822.5
358.15 K, 15000 kPa	827.7
358.15 K, 20000 kPa	832.5
358.15 K, 25000 kPa	838
358.15 K, 30000 kPa	843.9
358.15 K, 35000 kPa	849.7
363.15 K, 100 kPa	806.3
363.15 K, 1000 kPa	807.4
363.15 K, 2000 kPa	808.7
363.15 K, 2700 kPa	809.6
363.15 K, 3000 kPa	809.9
363.15 K, 5000 kPa	812.4
363.15 K, 10000 kPa	818.1
363.15 K, 15000 kPa	823.4
363.15 K, 20000 kPa	828.3
363.15 K, 25000 kPa	833.9
363.15 K, 30000 kPa	839.9
363.15 K, 35000 kPa	845.6
368.15 K, 100 kPa	801.2
368.15 K, 1000 kPa	802.3
368.15 K, 2000 kPa	803.7
368.15 K, 2700 kPa	804.6
368.15 K, 3000 kPa	805
368.15 K, 5000 kPa	807.5
368.15 K, 10000 kPa	813.4
368.15 K, 15000 kPa	818.8
368.15 K, 20000 kPa	824
368.15 K, 25000 kPa	829.8
368.15 K, 30000 kPa	835.9
368.15 K, 35000 kPa	841.4
373.15 K, 100 kPa	795.5
373.15 K, 1000 kPa	796.4
373.15 K, 2000 kPa	797.7
373.15 K, 2700 kPa	799.5
373.15 K, 3000 kPa	799
373.15 K, 5000 kPa	802.5
373.15 K, 10000 kPa	808.2
373.15 K, 15000 kPa	813.9
373.15 K, 20000 kPa	819.8
373.15 K, 25000 kPa	826.3
373.15 K, 30000 kPa	831.3
378.15 K, 100 kPa	790.4
378.15 K, 1000 kPa	791.6
378.15 K, 2000 kPa	793.1
378.15 K, 2700 kPa	794
378.15 K, 3000 kPa	794.4
378.15 K, 5000 kPa	797.1
378.15 K, 10000 kPa	803.5
383.15 K, 100 kPa	786.8
383.15 K, 1000 kPa	788.1
383.15 K, 2000 kPa	789.6
383.15 K, 2700 kPa	790.7
383.15 K, 3000 kPa	791.1
383.15 K, 5000 kPa	793.9
383.15 K, 10000 kPa	800.5
383.15 K, 15000 kPa	806.6
383.15 K, 20000 kPa	811.7
383.15 K, 25000 kPa	816.5
383.15 K, 30000 kPa	824
383.15 K, 35000 kPa	830
388.15 K, 100 kPa	781.9
388.15 K, 1000 kPa	783.4
388.15 K, 2000 kPa	785
388.15 K, 2700 kPa	786
388.15 K, 3000 kPa	786.5
388.15 K, 5000 kPa	789.4
388.15 K, 10000 kPa	796.3
388.15 K, 15000 kPa	802.5
388.15 K, 20000 kPa	808.1
388.15 K, 25000 kPa	813.7
388.15 K, 30000 kPa	819.7
388.15 K, 35000 kPa	826.2
393.15 K, 100 kPa	777.2
393.15 K, 1000 kPa	778.7
393.15 K, 2000 kPa	780.3
393.15 K, 2700 kPa	781.4
393.15 K, 3000 kPa	781.9
393.15 K, 5000 kPa	784.9
393.15 K, 10000 kPa	791.9
393.15 K, 15000 kPa	798.4
393.15 K, 20000 kPa	803.9
393.15 K, 25000 kPa	809.7
393.15 K, 30000 kPa	815.7
393.15 K, 35000 kPa	822.2
